Laboratory results from PMC11868579 (Nature Communications, 2024).

Key:
4E-BP1 binding to eIF4E = target: T1, 4E-BP1 binding to eIF4E (Homo sapiens, UniProt P06730); test: Co-immunoprecipitation with eIF4E antibody, immunoblot for 4E-BP1, SW620 lysates; assay type: biochemical; settings: 1–100 µM, 30 min
T1 construct: endogenous in cells; host or cells: SW620 cell lysates
Experimental: Cells were harvested by trypsinisation and washed with PBS before lysis in MSD lysis buffer (150 mM NaCl, 20 mM Tris pH 7.5, 1 mM EDTA, 1 mM EGTA, 1% Triton X-100) containing protease inhibitors (Roche, complete mini tablet, cat# 11836153001) and phosphatase inhibitors (50 mM NaF and 100 mM Na3VO4). Lysate was placed on ice for 30 min and then cleared in a microfuge at 17,000 x g for 10 min at 4 °C. The protein concentration of the cleared lysate was determined by BCA assay (Pierce) and adjusted to 4 mg/ml with lysis buffer. […] 100 μl of lysate and 100 μl of beads were then incubated with shaking overnight at 4 °C. Samples were then washed 3x with 1 ml PBS, resuspended in 100 μl PBS and boiled for 10 min with 1x SDS-PAGE sample buffer containing 10 μl 1 mM DTT.
After seeding overnight in 6 well plates (Corning, cat#353046), cells were treated with compounds for the indicated times and concentration, harvested and the cell pellet lysed on ice in cell lysis buffer (Cell Signaling, cat#9803), supplemented with 1x Halt^TM protease inhibitor cocktail (Fisher Scientific, cat#78429) and cOmplete^TM protease inhibitor cocktail (Sigma-Aldrich, cat#11836153001) for 1 hr. Protein was quantified using BCA protein kit (Fisher Scientific, cat#23225). […] Quantitative densitometry analysis of protein bands was performed using Image J v1.53 software.

eIF4E-dTAG protein = target: T2, eIF4E-dTAG protein (Homo sapiens, UniProt P06730); test: CETSA of eIF4E-dTAG protein in H1299 C3-1 cells; assay type: cell-based; settings: relative to control = 1.000, n=3
T2 construct: expressed in transfected cells
T2 sequence (P06730 with tags, fused parts or gaps): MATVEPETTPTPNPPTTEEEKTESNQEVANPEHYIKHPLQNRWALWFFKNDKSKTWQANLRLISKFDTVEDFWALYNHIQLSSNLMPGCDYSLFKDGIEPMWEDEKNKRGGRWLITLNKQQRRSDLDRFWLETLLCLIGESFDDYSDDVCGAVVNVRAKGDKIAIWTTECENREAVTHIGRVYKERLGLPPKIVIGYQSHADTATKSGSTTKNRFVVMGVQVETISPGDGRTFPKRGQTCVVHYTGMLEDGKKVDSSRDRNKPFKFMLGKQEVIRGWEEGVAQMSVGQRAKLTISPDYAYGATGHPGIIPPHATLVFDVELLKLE
Experimental: Cells (1.5 × 10^6 cells) were plated into 75 cm^2 flasks and allowed to attached overnight. After treatment with compound 4 or 5 for 6 h, they were harvested by trypsinisation and washed x2 in ice cold PBS. Cells were resuspended in 1 ml of cold PBS supplemented with protease and phosphatase inhibitors (Fisher Scientific, cat#1861281). Resuspended cells were divided into 100 μl aliquots and centrifuged at 300 x g for 3 min at 4 °C. Following centrifugation, 75μl of supernatant was removed and cells resuspended in the remaining volume. Cell suspensions were heated at 40.9, 43.7, 48.1, 52.9, 57.6, 62.4, 67.2, 71.9, 76.3 and 79.1 °C for 3 mins followed by cooling at 20 °C for 3 min[25]. Suspensions were freeze-thawed twice using liquid nitrogen. Soluble fractions were separated from cell debris by centrifuging at 20,000 x g for 30 min at 4 °C. Samples were then analysed by Western Blot. […]
Vinculin was used as a loading control. c Thermal stabilisation of eIF4E-dTAG protein by compound 4 or 5 binding. Quantification of immunoblots from H1299 C3-1cells incubated at 57.6 °C, following treatment with compound 4 (50, 25, 10, 5, 1, 0.5 μM) or compound 5 (50 μM) for 6 hr. Vinculin was […]
(1 picture or pasted object on this page, not shown here)

[1] = target: T3, endogenous eIF4E:eIF4G interaction (Homo sapiens, UniProt P06730); test: Electro-chemiluminescent eIF4E:eIF4G assay after treatment of intact H1299 cells; assay type: cell-based; settings: 100 µM; for disruption of eIF4E:eIF4G binding in intact cells: 16 hr; for endogenous eIF4E:eIF4G interaction in intact cells, electro-chemiluminescent signal, Average: H1299
T3 construct: endogenous in cells; host or cells: HeLa, SW620 or H1299 cells (lysates; intact H1299 cells in A13)
T3 sequence (P06730 2-217 limits assumed): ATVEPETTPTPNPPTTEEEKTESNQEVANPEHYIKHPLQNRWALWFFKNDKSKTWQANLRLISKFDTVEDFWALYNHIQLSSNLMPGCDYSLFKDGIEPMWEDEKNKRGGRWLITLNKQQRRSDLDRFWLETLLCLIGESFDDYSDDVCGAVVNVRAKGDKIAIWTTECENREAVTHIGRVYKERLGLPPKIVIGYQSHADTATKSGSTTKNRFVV

H1299 cells = test: CellTiter-Blue cell viability, H1299; assay type: cell-based, human; settings: for Cell viability by cell titre blue assay, Average: H1299, 4 days, n=3
Experimental: Cell viability was measured by CellTiter-Blue® Cell Viability Assay. Cells were seeded in 96 well plates (Corning, cat#353072) and left overnight. Compounds were added at a range of concentrations and plates incubated at 37 °C for 96 hr. Cell titre blue reagent (Promega, Hampshire, UK, cat# G8081) was added (5 μl/well) and incubated for a further 2 h at 37 °C. Fluorescence (579Ex/584Em) was measured using a PHERAstar plate reader.

MCL1 protein expression = test: Immunoblot of MCL1 in eIF4E-dTAG clones and rescue models; assay type: cell-based, human; settings: for Quantification of MCL1 immunoblot signals using Image J, Average: Cont = 100; for Quantification of MCL1 (6hr) immunoblot signal using Image J, Average: 0.5 μM, control = 100
Experimental: One sample t and Wilcoxon tests (two-sided), using 100% as hypothetical control value, were performed and compared with the control in each cell line. b, c Real-time cell growth measurements monitored every 4 h over a 6-day period. Cell confluency (%) was calculated using Incucyte Zoom software and (mean ± SEM n = 3 biological replicates). Ordinary one-way ANOVA with Tukey multiple comparisons test compared treatment with the control in each cell line. […] Vinculin was used as loading control. H1299 (PAR) cell lines were treated with 1 μM dTAG^V-1 only as qualitative control. Vinculin was used as loading control. […] Significant p-values (< 0.05) are shown on the plots and the source data is located in the Source Data file.
After seeding overnight in 6 well plates (Corning, cat#353046), cells were treated with compounds for the indicated times and concentration, harvested and the cell pellet lysed on ice in cell lysis buffer (Cell Signaling, cat#9803), supplemented with 1x Halt^TM protease inhibitor cocktail (Fisher Scientific, cat#78429) and cOmplete^TM protease inhibitor cocktail (Sigma-Aldrich, cat#11836153001) for 1 hr. Protein was quantified using BCA protein kit (Fisher Scientific, cat#23225). Western blot was performed using NuPAGE^TM 4–12% Bis-Tris gels (Fisher Scientific, cat#NP0336BOX) and transferred using the Invitrogen iBLOT^TM gel transfer device system (Fisher Scientific, Cat#IB21001). […] All primary antibodies were diluted (1:1000) in 5% BSA (Sigma-Aldrich, cat#A7906) in 1x TBS and 0.1% Tween 20 (Sigma-Aldrich, cat#P1379), except for vinculin (1:2000) that was diluted in casein blocker (Sigma-Aldrich, cat#1610782). This was followed by incubation with the secondary HRP-conjugated antibodies (anti-mouse HRP, Bio-rad, Watford, UK, cat#1705047; anti-rabbit HRP, Sigma-Aldrich, cat#NA934) in casein for 1 h at RT. ECL HRP substrate (SuperSignalTM West Pico, Fisher Scientific, cat#34578) was then added to detect protein targets by chemiluminescence and images acquired using the ChemiDocTM system (Bio-Rad). Quantitative densitometry analysis of protein bands was performed using Image J v1.53 software.

T1 sequence (P06730 2-217 limits assumed): as above

In the case of `CC[C@H](O[C@H](C)CO)c1ccc(-c2ccccc2F)cc1NCCO` [Compound 4], the “effect on 4E-BP1 binding to eIF4E (co-immunoprecipitation)” value (4E-BP1 binding to eIF4E) is reported as “did not disrupt 4E-BP1 binding to eIF4E”, the “Thermal stabilisation of eIF4E-dTAG protein, Average” value (shortened to “Thermal stabilisation”) (eIF4E-dTAG protein; 0.5 μM) is reported as 1.070 and the “Thermal stabilisation” value (eIF4E-dTAG protein; 1 μM) is reported as 1.047. For the same compound, the “Thermal stabilisation” value (eIF4E-dTAG protein; 5 μM) was 1.235, the “Thermal stabilisation” value (eIF4E-dTAG protein; 10 μM) was 1.737 and the “Thermal stabilisation” value (eIF4E-dTAG protein; 25 μM) was 1.613. The “Thermal stabilisation” value (eIF4E-dTAG protein; 50 μM) was 1.946, the “disruption of eIF4E:eIF4G binding in intact cells” value [1] was “significantly disrupt eIF4E:eIF4G binding” and the “endogenous eIF4E:eIF4G interaction in intact cells, electro-chemiluminescent signal, Average” value (“endogenous eIF4E:eIF4G interaction” for short) ([1]; 6hr, control 1641896.8) was 1444726.0. For the same compound, the “endogenous eIF4E:eIF4G interaction” value ([1]; 16hr, control 1700881.1) was 549014.1, the antiproliferative activity (H1299 cells; H1299, 96 hr) was “lacked on-target antiproliferative activity” and the “Cell viability by cell titre blue assay, Average” value (“Cell viability” below) (H1299 cells; 0.62 uM) was 93.752. The “Cell viability” value (H1299 cells; 1.85 uM) was 89.518, the “Cell viability” value (H1299 cells; 5.56 uM) was 87.397 and the “Cell viability” value (H1299 cells; 16.67 uM) was 77.938. For the same compound, the “Cell viability” value (H1299 cells; 50 uM) was 33.702, the “MCL1 expression on co-treatment” value (MCL1 protein expression; 25 μM with dTAG^V-1, C3-1 or L85R rescue line) was “no additional loss of proliferation or MCL1 expression” and the “effect on MCL1 biomarker” value (MCL1 protein expression; 25 μM, absence of dTAG^V-1, C3-1, W73F and L85R models) was “no effect on the MCL1 biomarker or proliferation”.

`CC[C@@H](O[C@H](C)CO)c1ccc(-c2ccccc2F)cc1NCCO` [Compound 5] was tested, and the “effect on 4E-BP1 binding to eIF4E (co-immunoprecipitation)” value (4E-BP1 binding to eIF4E) was “limited effect”, the “Thermal stabilisation” value (eIF4E-dTAG protein; 50 μM) was 1.004 and the “disruption of eIF4E:eIF4G binding in intact cells” value [1] was “some limited evidence of activity”. For the same compound, the “endogenous eIF4E:eIF4G interaction” value ([1]; 6hr, control 1641896.8) was 1584729.4, the “endogenous eIF4E:eIF4G interaction” value ([1]; 16hr, control 1700881.1) was 1071107.1 and the “Cell viability” value (H1299 cells; 0.62 uM) was 92.413. For the same compound, the “Cell viability” value (H1299 cells; 1.85 uM) was 89.367, the “Cell viability” value (H1299 cells; 5.56 uM) was 90.001 and the “Cell viability” value (H1299 cells; 16.67 uM) was 80.933. For the same compound, the “Cell viability” value (H1299 cells; 50 uM) was 48.944.

With `CC[C@H](C(=O)N1CCCC[C@H]1C(=O)O[C@H](CCc1ccc(OC)c(OC)c1)c1ccccc1OCC(=O)NCCCCCCC(=O)N[C@H](C(=O)N1C[C@H](O)C[C@H]1C(=O)N[C@@H](C)c1ccc(-c2scnc2C)cc1)C(C)(C)C)c1cc(OC)c(OC)c(OC)c1` [dTAG^V-1] the “Quantification of MCL1 immunoblot signals using Image J, Average” value (MCL1 protein expression; C3-1 + WT eIF4E, 0.5 uM, n=3) was 116.17, the “Quantification of MCL1 immunoblot signals using Image J, Average” value (MCL1 protein expression; C3-1 + WT eIF4E, 1 uM, n=3) was 110.20 and the “Quantification of MCL1 (6hr) immunoblot signal using Image J, Average” value (MCL1 protein expression; C3-1, n=3) was 44. The “Quantification of MCL1 immunoblot signals using Image J, Average” value (MCL1 protein expression; C3-1, 0.5 uM, n=3) was 39.67, the “Quantification of MCL1 immunoblot signals using Image J, Average” value (MCL1 protein expression; C3-1, 1 uM, n=3) was 38.77 and the “Quantification of MCL1 immunoblot signals using Image J, Average” value (MCL1 protein expression; L85R, 0.5 uM, n=3) was 69.30. For the same compound, the “Quantification of MCL1 immunoblot signals using Image J, Average” value (MCL1 protein expression; L85R, 1 uM, n=3) was 57.73, the “Quantification of MCL1 immunoblot signals using Image J, Average” value (MCL1 protein expression; L134R, 0.5 uM, n=3) was 63.30 and the “Quantification of MCL1 immunoblot signals using Image J, Average” value (MCL1 protein expression; L134R, 1 uM, n=3) was 50.60. The “Quantification of MCL1 (6hr) immunoblot signal using Image J, Average” value (MCL1 protein expression; S209A rescue, n=3) was 117, the “Quantification of MCL1 immunoblot signals using Image J, Average” value (MCL1 protein expression; S209A, 0.5 uM, n=3) was 104.13 and the “Quantification of MCL1 immunoblot signals using Image J, Average” value (MCL1 protein expression; S209A, 1 uM, n=3) was 110.17. For the same compound, the “Quantification of MCL1 (6hr) immunoblot signal using Image J, Average” value (MCL1 protein expression; W56A rescue, n=3) was 49, the “Quantification of MCL1 immunoblot signals using Image J, Average” value (MCL1 protein expression; W56A, 0.5 uM, two experiments) was 55.95 and the “Quantification of MCL1 immunoblot signals using Image J, Average” value (MCL1 protein expression; W56A, 1 uM, n=3) was 64.70. The “Quantification of MCL1 immunoblot signals using Image J, Average” value (MCL1 protein expression; W73F/L85R, 0.5 uM, n=3) was 57.83, the “Quantification of MCL1 immunoblot signals using Image J, Average” value (MCL1 protein expression; W73F/L85R, 1 uM, n=3) was 56.77 and the “Quantification of MCL1 immunoblot signals using Image J, Average” value (MCL1 protein expression; W73F, 0.5 uM, n=3) was 92.60. For the same compound, the “Quantification of MCL1 immunoblot signals using Image J, Average” value (MCL1 protein expression; W73F, 1 uM, n=3) was 99.57, the “Quantification of MCL1 (6hr) immunoblot signal using Image J, Average” value (MCL1 protein expression; WT rescue, n=3) was 99 and the “MCL1 protein after treatment” value (MCL1 protein expression; eIF4E-dTAG clones) was “decrease in MCL1 protein”.
